Converted amounts (≈) assume the structure as drawn. Where two headings read alike, the source gives them in different places. One block for each compound: values may come before it.
Columns and labels:
in vitro = conditions: mouse, pooled liver microsomes
[1] = Mouse liver microsomal (MLM) stability; conditions: 1 μM compound
physchem [2] = conditions: pH 2, simulated gastric fluid, kinetic from dmso stock
physchem [3] = conditions: water, thermodynamic from solid
human EP2 receptor = target: T1, human EP2 receptor (Homo sapiens, UniProt P43116); assay: Cell-based cAMP TR-FRET assay, Schild KB on EP2; conditions: for Kb: Schild KB, agonist PGE2, antagonist concentration 1 μM, C6G cells expressing human EP2
T1 construct: expressed in transfected cells

[4] = Kinetic aqueous solubility in PBS by nephelometry; conditions: for Aqueous Solubility: PBS buffer (pH 7.4) with 1% DMSO, nephelometry
C6glioma cells = conditions: rat
[5] = Solubility in simulated gastric fluid (SGF) by nephelometry
[6] = mouse
[7] = pH 7.4
human DP1 receptor = target: T2, human DP1 receptor (Homo sapiens, UniProt Q13258); conditions: selectivity index DP1 KB/EP2 KB, fold
T2 sequence (Q13258 1-359): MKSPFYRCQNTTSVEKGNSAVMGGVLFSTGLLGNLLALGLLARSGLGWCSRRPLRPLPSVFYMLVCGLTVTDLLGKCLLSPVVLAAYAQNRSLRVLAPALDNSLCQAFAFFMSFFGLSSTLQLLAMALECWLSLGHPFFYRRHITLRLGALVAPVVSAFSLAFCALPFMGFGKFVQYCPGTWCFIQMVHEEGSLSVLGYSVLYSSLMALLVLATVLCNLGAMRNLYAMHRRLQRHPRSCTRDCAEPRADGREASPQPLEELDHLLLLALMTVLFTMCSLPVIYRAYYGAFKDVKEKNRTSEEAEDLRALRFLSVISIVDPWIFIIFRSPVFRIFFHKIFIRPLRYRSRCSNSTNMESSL

human IP receptor = human IP receptor (Homo sapiens, UniProt P43119); assay: Cell-based cAMP TR-FRET assay on IP (agonist iloprost); conditions: selectivity index IP KB/EP2 KB, fold
[8] = mouse; remark: listed apart in the source
human EP4 receptor = human EP4 receptor (Homo sapiens, UniProt P35408); assay: Cell-based cAMP TR-FRET assay on EP4 (agonist PGE2); conditions: selectivity index EP4 KB/EP2 KB, fold
[9] = Metabolite investigation in mouse liver microsomes; type: in vitro ADME; conditions: 2a after 5 minutes; 3 after 20 minutes

T1 sequence (P43116 whole entry): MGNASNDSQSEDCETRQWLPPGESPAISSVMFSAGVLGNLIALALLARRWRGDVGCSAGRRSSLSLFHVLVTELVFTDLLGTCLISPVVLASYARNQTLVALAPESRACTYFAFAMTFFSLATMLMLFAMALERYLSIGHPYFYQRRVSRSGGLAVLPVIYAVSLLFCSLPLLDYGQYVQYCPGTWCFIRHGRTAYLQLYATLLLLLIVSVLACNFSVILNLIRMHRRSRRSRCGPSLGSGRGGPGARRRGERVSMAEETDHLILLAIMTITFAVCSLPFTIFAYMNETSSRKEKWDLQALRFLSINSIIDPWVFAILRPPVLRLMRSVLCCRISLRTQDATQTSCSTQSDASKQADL
human IP receptor, sequence (P43119 whole entry): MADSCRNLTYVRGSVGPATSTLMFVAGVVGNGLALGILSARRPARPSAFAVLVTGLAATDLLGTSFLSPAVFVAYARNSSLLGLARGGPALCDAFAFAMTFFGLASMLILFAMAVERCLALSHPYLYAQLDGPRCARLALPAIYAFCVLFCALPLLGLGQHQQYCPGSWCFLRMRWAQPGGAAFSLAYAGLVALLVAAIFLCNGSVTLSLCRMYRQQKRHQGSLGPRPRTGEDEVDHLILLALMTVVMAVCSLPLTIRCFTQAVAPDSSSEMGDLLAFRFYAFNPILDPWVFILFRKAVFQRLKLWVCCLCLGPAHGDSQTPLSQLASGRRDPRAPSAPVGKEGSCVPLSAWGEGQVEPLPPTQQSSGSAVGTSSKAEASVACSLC
human EP4 receptor, sequence (P35408 whole entry): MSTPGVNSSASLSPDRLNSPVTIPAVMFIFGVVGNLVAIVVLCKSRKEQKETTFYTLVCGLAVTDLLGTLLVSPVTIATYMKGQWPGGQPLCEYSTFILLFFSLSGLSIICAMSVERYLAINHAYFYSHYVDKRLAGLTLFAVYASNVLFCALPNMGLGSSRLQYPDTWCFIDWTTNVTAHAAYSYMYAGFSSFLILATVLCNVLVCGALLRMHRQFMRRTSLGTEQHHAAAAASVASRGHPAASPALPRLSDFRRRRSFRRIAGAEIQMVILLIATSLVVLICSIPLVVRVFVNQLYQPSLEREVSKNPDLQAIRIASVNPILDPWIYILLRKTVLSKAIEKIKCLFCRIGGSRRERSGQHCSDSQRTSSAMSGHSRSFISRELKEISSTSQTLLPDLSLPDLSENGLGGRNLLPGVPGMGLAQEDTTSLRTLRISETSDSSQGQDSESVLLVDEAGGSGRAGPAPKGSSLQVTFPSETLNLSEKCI

SMILES: COc1cccc2c1C(=O)c1c(O)c3c(c(O)c1C2=O)C[C@@](O)(C(=O)CO)C[C@@H]3O[C@H]1C[C@H](N)[C@H](O)[C@H](C)O1 [doxorubucin, reference compound]
CC50 (C6glioma cells): 900 nM

SMILES: Cc1cc(C)nc(Nc2ncc(C(=O)NCCc3c(C)[nH]c4ccccc34)cn2)c1 [Compound 20o, 2-((4,6-Dimethylpyridin-2-yl)amino)-N-(2-(2-methyl-1H-indol-3-yl)ethyl)pyrimidine-5-carboxamide]
Aqueous solubility of corresponding HCl salt in SGF ([5]; HCl salt, simulated gastric fluid pH 2.0, nephelometry): >250 µM | solubility ([5]; pH 2, simulated gastric fluid, kinetic from dmso stock): > 100 µM | substrate of efflux pumps (MDR1-MDCK cell line): not the substrate of efflux pumps | Permeability across MDR1-MDCK cell line, A-B (MDR1-MDCK cell line; dog): A-B: 13.2 × 10^−6 cm/s | Permeability across MDR1-MDCK cell line, B-A (MDR1-MDCK cell line; dog): B-A: 22.2 × 10^−6 cm/s | CC50 (C6glioma cells): > 50000 nM | MLMt1/2 [6]: 17 min | bioavailability (in vivo; mouse, po): 25% | Aqueous Solubility [7]: 15 µM

SMILES: Cc1[nH]c2ccccc2c1CCNC(=O)c1ccc(-c2cnc[nH]2)cc1 [TG8-260, 4-(1H-imidazol-5-yl)-N-(2-(2-methyl-1H-indol-3-yl)ethyl)benzamide]
S.I. (DP1/EP2) (human DP1 receptor): at least 300 | S.I (EP4/EP2) (human EP4 receptor): at least 300 | inhibition of PGE2-induced human EP2 receptor activation (human EP2 receptor; concentration-response, in words): inhibits PGE2-induced human EP2 receptor activation in a concentration dependent manner | S.I (IP/EP2) (human IP receptor): at least 300

SMILES: Cc1[nH]c2ccccc2c1CCNC(=O)c1ccc(-c2nnn[nH]2)cc1 [Compound 3]
metabolites after incubation in mouse liver microsomes [9]: did not produce any fragments even after 20 minutes of incubation | MLMt1/2 ([1]; 0.5 mg/mL liver microsomes (compounds 1 and 3)): >60 min | half-life (in vivo; mouse, po, 10 mg/kg): > 6 h

The next lines start with the values.

half-life at 1 μM (in vitro): 0.383 h | MLMt1/2 ([1]; 0.125 mg/mL liver microsomes (Table 7)): 23 min | solubility (physchem [2]): > 250 µM | solubility (physchem [3]): 1.1 to 1.2 mg/mL (≈ 2630 to 2870 µM) | solubility at 24 h (physchem [3]): 2640 µM (≈ 1100 µg/mL) | Kp at 0.5 h (in vivo; C57BL/6, mouse): 0.4 | half-life (in vivo; mouse, ip, 20 mg/kg): 5.4 h | Kb (human EP2 receptor): 1.7 nM | solubility ([4]; PBS with 1% DMSO, pH 7.4, aqueous buffer, kinetic from dmso stock): 150 µM (≈ 62.8 µg/mL)
SMILES: Cc1cc(C)nc(Nc2ncc(C(=O)NCCc3c(C)[nH]c4c(F)cccc34)cn2)c1 [Compound 24aa, 2-((4,6-dimethylpyridin-2-yl)amino)-N-(2-(7-fluoro-2-methyl-1H-indol-3-yl)ethyl)pyrimidine-5-carboxamide]

S.I. (DP1/EP2) (human DP1 receptor): >1280 | Kb (human EP2 receptor): 7.8 nM | S.I (IP/EP2) (human IP receptor): >1280 | Aqueous Solubility [4]: 15 µM
SMILES: COc1cccc(Nc2ncc(C(=O)NCCc3c(C)[nH]c4ccccc34)cn2)n1 [Compound 20h, 2-((6-Methoxypyridin-2-yl)amino)-N-(2-(2-methyl-1H-indol-3-yl)ethyl)pyrimidine-5-carboxamide]

stability in vivo [8]: unstable in vivo | S.I (EP4/EP2) (human EP4 receptor): >1500 | S.I (IP/EP2) (human IP receptor): >1500 | Aqueous Solubility [4]: 15 µM
SMILES: Cc1[nH]c2ccccc2c1CCNC(=O)c1cnc(Nc2cc(F)ccn2)nc1 [Compound 20c, 2-((4-Fluoropyridin-2-yl)amino)-N-(2-(2-methyl-1H-indol-3-yl)ethyl)pyrimidine-5-carboxamide]

S.I. (DP1/EP2) (human DP1 receptor): >900 | S.I (IP/EP2) (human IP receptor): >900 | Aqueous Solubility [4]: 27 µM
SMILES: Cc1[nH]c2ccccc2c1CCNC(=O)c1cnc(Nc2ccccn2)nc1 [Compound 20a, N-(2-(2-Methyl-1H-indol-3-yl)ethyl)-2-(pyridin-2-ylamino)pyrimidine-5-carboxamide]

— patent publication US20250206721A1, “Prostaglandin Receptor EP2 Antagonists, Derivatives, and Uses Related Thereto” (Emory University, priority 2019, published 2025)
